According to US9073821B2, “Hydroxamic acid derivative” (priority 2010, dated 2015):
Where two headings read alike, the source gives them in different places.

Target: Pseudomonas aeruginosa LpxC enzyme (Pseudomonas aeruginosa (strain ATCC 15692 / DSM 22644 / CIP 104116 / JCM 14847 / LMG 12228 / 1C / PRS 101 / PAO1), UniProt P47205)
Assay: biochemical
Format: biochemical
[1] = inhibitory activity on Pseudomonas aeruginosa LpxC enzyme, class symbols A/B/C, read-out: Enzyme inhibitory activity
[2] = class symbols A/B/C by IC50, Table 3, read-out: Enzyme inhibitory activity (inhibitory activity on Pseudomonas aeruginosa LpxC enzyme)

| SMILES | IC50 [1] | IC50 [2] |
| --- | --- | --- |
| CCCOc1ccc(-c2ccc(C(=O)N(C)C(C(=O)NC)C(=O)NO)cc2)cn1 (stereo not drawn) [Compound 467, N-hydroxy-N′-methyl-2-(methyl {[4-(6-propoxypyridin-3-yl)phenyl]carbonyl}amino)propanediamide] | < 10 nM |  |
| CNC(=O)C(C(=O)NO)N(C)C(=O)c1ccc(-c2ccc(OCc3ccccc3)nc2)cc1 (stereo not drawn) [Compound 468, 2-[({4-[6-(benzyloxy)pyridin-3-yl]phenyl}carbonyl)(methyl)amino]-N-hydroxy-N′-methylpropanediamide] | < 10 nM |  |
| CNC(=O)C(C(=O)NO)N(C)C(=O)c1ccc(-c2ccc(SC)nc2)cc1 (stereo not drawn) [Compound 469, N-hydroxy-N′-methyl-2-[methyl({4-[6-(methylsulfanyl)pyridin-3-yl]phenyl}carbonyl)amino]propanediamide] | 10 to 100 nM |  |
| CNC(=O)C(C(=O)NO)N(C)C(=O)c1ccc(C#Cc2ccc(N3CCN(C)CC3)cc2)cc1 (stereo not drawn) [Compound 473, N-hydroxy-N′-methyl-2-{methyl[(4-{[4-(4-methylpiperazin-1-yl)phenyl]ethynyl}phenyl)carbonyl]amino}propanediamide] | 10 to 100 nM |  |
| CCCCc1ccc(-c2ccc(C(=O)N(C)C(C(=O)NC)C(=O)NO)cc2)cn1 (stereo not drawn) [Compound 474, 2-[{[4-(6-butylpyridin-3-yl)phenyl]carbonyl}(methyl)amino]-N-hydroxy-N′-methylpropanediamide] | 10 to 100 nM |  |
| CCCCCNc1ccc(-c2ccc(C(=O)N(C)C(C(=O)NC)C(=O)NO)cc2)cn1 (stereo not drawn) [Compound 475, N-hydroxy-N′-methyl-2-[methyl({4-[6-(pentylamino)pyridin-3-yl]phenyl}carbonyl)amino]propanediamide] | 10 to 100 nM |  |
| CNC(=O)C(C(=O)NO)N(C)C(=O)c1ccc(C#CC#Cc2ccc(CNC3CC3)cc2)cc1 (stereo not drawn) [Compound 476, 2-[{[4-(4-{4-[(cyclopropylamino)methyl]phenyl}buta-1,3-diyn-1-yl)phenyl]carbonyl}(methyl)amino]-N-hydroxy-N′-methylpropanediamide] | < 10 nM |  |
| CNC(=O)C(C(=O)NO)N(C)C(=O)c1ccc(C#C/C=C/c2ccc(OC)nc2)cc1 (stereo not drawn) [Compound 478, N-hydroxy-2-[({4-[(3E)-4-(6-methoxypyridin-3-yl)but-3-en-1-yn-1-yl]phenyl}carbonyl)(methyl)amino]-N′-methylpropanediamide] | < 10 nM |  |
| CNC(=O)C(C(=O)NO)N(C)C(=O)c1ccc(-c2ccc(-c3ccc(CN4CCOCC4)o3)cc2)cc1 (stereo not drawn) [Compound 479, N-hydroxy-N′-methyl-2-[methyl({4′-[5-(morpholin-4-ylmethyl)furan-2-yl]biphenyl-4-yl}carbonyl)amino]propanediamide] | < 10 nM |  |
| CNC(=O)C(C(=O)NO)N(C)C(=O)c1ccc(C#Cc2ccc(CNCc3cc(C)on3)cc2)cc1 (stereo not drawn) [Compound 482, N-hydroxy-N′-methyl-2-{methyl[(4-{[4-({[(5-methyl-1,2-oxazol-3-yl)methyl]amino}methyl)phenyl]ethynyl}phenyl)carbonyl]amino}propanediamide] | < 10 nM |  |
| CNC(=O)C(C(=O)NO)N(C)C(=O)c1ccc(C#Cc2coc(CN3CCOCC3)c2)cc1 (stereo not drawn) [Compound 483, N-hydroxy-N′-methyl-2-{methyl[(4-{[5-(morpholin-4-ylmethyl)furan-3-yl]ethynyl}phenyl)carbonyl]amino}propanediamide] | < 10 nM |  |
| CNC(=O)C(C(=O)NO)N(C)C(=O)c1ccc(C#CC#Cc2ccoc2)cc1 (stereo not drawn) [Compound 484, 2-[({4-[4-(furan-3-yl)buta-1,3-diyn-1-yl]phenyl}carbonyl)(methyl)amino]-N-hydroxy-N′-methylpropanediamide] | < 10 nM |  |
| CNC(=O)C(C(=O)NO)N(C)C(=O)c1ccc(C#Cc2ccc(CNCc3ncco3)cc2)cc1 (stereo not drawn) [Compound 485, N-hydroxy-N′-methyl-2-[methyl({4-[(4-{[(1,3-oxazol-2-ylmethyl)amino]methyl}phenyl)ethynyl]phenyl}carbonyl)amino]propanediamide] | < 10 nM |  |
| CNC(=O)C(C(=O)NO)N(C)C(=O)c1ccc(C#Cc2coc(CNCC(F)(F)F)c2)cc1 (stereo not drawn) [Compound 488, N-hydroxy-N′-methyl-2-[methyl({4-[(5-{[(2,2,2-trifluoroethyl)amino]methyl}furan-3-yl)ethynyl]phenyl}carbonyl)amino]propanediamide] | < 10 nM |  |
| CNC(=O)C(C(=O)NO)N(C)C(=O)c1ccc(C#Cc2ccc(CN3Cc4ccccc4C3)cc2)cc1 (stereo not drawn) [Compound 489, 2-{[(4-{[4-(1,3-dihydro-2H-isoindol-2-ylmethyl)phenyl]ethynyl}phenyl)carbonyl](methyl)amino}-N-hydroxy-N′-methylpropanediamide] | < 10 nM |  |
| CNC(=O)C(C(=O)NO)N(C)C(=O)c1ccc(C#CC#Cc2ccc(CN3CCN(C)CC3)cc2)cc1 (stereo not drawn) [Compound 492, N-hydroxy-N′-methyl-2-(methyl {[4-(4-{4-[(4-methylpiperazin-1-yl)methyl]phenyl}buta-1,3-diyn-1-yl)phenyl]carbonyl}amino)propanediamide] | < 10 nM |  |
| CNC(=O)C(C(=O)NO)N(C)C(=O)c1ccc(C#CC#Cc2ccc(CNCC(C)(C)C)cc2)cc1 (stereo not drawn) [Compound 493, 2-[({4-[4-(4-{[(2,2-dimethylpropyl)amino]methyl}phenyl)buta-1,3-diyn-1-yl]phenyl}carbonyl)(methyl)amino]-N-hydroxy-N′-methylpropanediamide] | < 10 nM |  |
| CNC(=O)C(C(=O)NO)N(C)C(=O)c1ccc(C#Cc2ccc(CN(C)Cc3ccccc3)cc2)cc1 (stereo not drawn) [Compound 495, 2-[({4-[(4-{[benzyl(methyl)amino]methyl}phenyl)ethynyl]phenyl}carbonyl)(methyl)amino]-N-hydroxy-N′-methylpropanediamide] |  | < 10 nM |
| CNC(=O)C(C(=O)NO)N(C)C(=O)c1ccc(C#Cc2ccc(N3CCC(N4CCOCC4)CC3)cc2)cc1 (stereo not drawn) [Compound 496, N-hydroxy-N′-methyl-2-(methyl {[4-({4-[4-(morpholin-4-yl)piperidin-1-yl]phenyl}ethynyl)phenyl]carbonyl}amino)propanediamide] |  | < 10 nM |
| CNC(=O)C(C(=O)NO)N(C)C(=O)c1ccc(-c2ccc(-c3ccc(CO)o3)cc2)cc1 (stereo not drawn) [Compound 499, N-hydroxy-2-[({4′-[5-(hydroxymethyl)furan-2-yl]biphenyl-4-yl}carbonyl)(methyl)amino]-N′-methylpropanediamide] |  | < 10 nM |
| CCO/N=C/c1ccc(C#Cc2ccc(C(=O)N(C)C(C(=O)NC)C(=O)NO)cc2)o1 (stereo not drawn) [Compound 501, 2-[{[4-({5-[(E)-(ethoxyimino)methyl]furan-2-yl}ethynyl)phenyl]carbonyl}(methyl)amino]-N-hydroxy-N′-methylpropanediamide] |  | < 10 nM |
| CNC(=O)C(C(=O)NO)N(C)C(=O)c1ccc(-c2ccc(CCCN3CCCOCC3)cc2)cc1 (stereo not drawn) [Compound 502, N-hydroxy-N′-methyl-2-[methyl({4′-[3-(1,4-oxazepan-4-yl)propyl]biphenyl-4-yl}carbonyl)amino]propanediamide] |  | 10 to 100 nM |
| CNC(=O)C(C(=O)NO)N(C)C(=O)c1ccc(C#CC2CC2)cc1 (stereo not drawn) [Compound 503, 2-[{[4-(cyclopropylethynyl)phenyl]carbonyl}(methyl)amino]-N-hydroxy-N′-methylpropanediamide] |  | > 100 nM |
| CNC(=O)C(C(=O)NO)N(C)C(=O)c1ccc(C#Cc2cnn(C)c2)cc1 (stereo not drawn) [Compound 504, N-hydroxy-N′-methyl-2-[methyl({4-[(1-methyl-1H-pyrazol-4-yl)ethynyl]phenyl}carbonyl)amino]propanediamide] |  | 10 to 100 nM |
